{
  "source": "patent US20110200165A1",
  "about": "“CONTRAST AGENT-REINFORCED RADIOTHERAPY HAVING HIGH-OUTPUT TUBES” (BAYER SCHERING PHARMA AKTIENGESELLSCHAFT, priority 2008, published 2011)",
  "key": {"[1]": {"tested_on": "glioblastoma (GS9L) rat tumor model", "experiment": "Contrast medium-enhanced CT radiation therapy, survival, glioblastoma (GS9L) rat tumor model", "type": "in vivo", "conditions": "2 g of iodine/kg i.v. within 6 minutes before each of 6 sessions of 3 Gy, 140 kV, total 18 Gy; versus irradiation with common salt and untreated", "text": "The therapeutic effectiveness of the contrast medium-enhanced radiation therapy was examined on a glioblastoma (GS9L) rat tumor model. To this end, male Fisher rats were inoculated stereotactically with 5 […]I of cell suspension (10^6 glioblastoma 9L cells) in the brain. After 8 days, the tumor growth was ensured by means of MRT, and the animals were divided into 3 groups (n=5). The animals of group 1 received no therapy and were used as a control. Animals of groups 2 and 3 passed through a CT radiation therapy with a total dose of 18 Gy at a tube voltage of 140 kV (Volume Zoom, Siemens Medical Solutions, Erlangen). Six therapy sessions were performed (2 per day at an interval of 4 hours), and one dose of 3 Gy was administered to the animals in each case. The radiation was limited to the tumor using the layer collimators and introduced within 90 s, which corresponds to a tumor-dose rate of 2 Gy/minute. Before each therapy session, a dimeric contrast medium (Isovist 300, Bayer Schering Pharma, Berlin) in a dose of 2 g of iodine/kg of body weight was administered to the animals of group 2. The latter was administered intravenously, within 6 minutes. With this application scheme, a maximum iodine-tumor concentration in a short plateau phase of between 6 and 7 minutes is achieved (FIG. 14). […]"}, "[2]": {"conditions": "rat, in vivo", "text": "The contrast medium can also be intraarterially introduced into the vessel as in interventional angiography. To this end, a catheter is positioned in front of the outlet of the vascular section of interest. In the GS9L rat tumor model, the contrast medium concentration in the tumor was studied at a low flow rate for an intraarterial administration in 4 animals. To this end, the carotid artery was catheterized on day 10 after inoculation of the tumor cells, and a cannula was placed in the internal carotid artery (19). Via the latter, Isovist 300 was administered in a dosage of 2 g of iodine within 6 minutes. CT images of the rat head were made at the points in time 0, 1, 2, . . . 15 and 20 minutes after the beginning of the injection. For evaluation, the DynEva equipment software was used. The mean absorption in the tumor, adjacent healthy brain areas and in adjacent skin areas was determined for each point in time and converted into the corresponding iodine concentration. […] Relative to an intravenous administration, the plateau phase is extended to 60-120 seconds, and the drop in iodine concentration is slower. During the contrast medium administration phase, iodine accumulates analogously in the tumor and reaches a plateau after the end of the latter. […] In the healthy brain tissue, only very low iodine concentrations<0.5 mg/ml were observed."}, "[3]": {"tested_on": "glioblastoma (GS9L) rat tumor model", "experiment": "Contrast medium-enhanced radiation therapy compared with linear accelerator, glioblastoma (GS9L) rat tumor model", "type": "in vivo", "experimental": "For examination of the therapeutic effectiveness of the contrast medium-enhanced radiation therapy with a high dose rate, the latter was compared to the therapeutic standard, i.e., a radiation therapy on the linear accelerator. To this end, a glioblastoma (GS9L) rat tumor model was used. Male Fischer rats were stereotactially inoculated with 5 µl of cell suspension (10^6 glioblastoma 9L cells) in the brain. After 8 days, the to growth was ensured by means of MRT, and the animals were divided into 3 groups. The animals of group 1 (n=6) obtained no therapy and were used as a control. Animals of group 2 (n=5) were treated on the linear accelerator (Novalis, Brain Lab AG, Feldkirchen) at 2 MV with a total dose of 18 Gy. This dose was administered to 3 in fractions of 6 Gy each on days 9, 10 and 11 after inoculation. The animals of group 3 passed through a contrast medium-enhanced radiation therapy on days 9-11 with a total dose of 18 Gy and a tube voltage of 140 kV (Volume Zoom, Siemens Medical Solutions, Erlangen). Six therapy sessions were carried out (2 per day at 4-hour intervals) and in each case a dose of 3 Gy was administered to the animals within 90 seconds. This corresponds to a tumor-dose rate of 2 Gy/minute. […]"}},
  "data": [
    {"compound": "CN(C(=O)CC(=O)N(C)c1c(I)c(C(=O)NC(CO)C(O)CO)c(I)c(C(=O)NC(CO)C(O)CO)c1I)c1c(I)c(C(=O)NC(CO)C(O)CO)c(I)c(C(=O)NC(CO)C(O)CO)c1I", "note": "(stereo not shown) [Isovist 300, Iotrolan]", "values": [
      {"measurement": "survival after contrast medium-enhanced radiation therapy", "setting": "[1]", "result": "considerable therapeutic advantage"},
      {"measurement": "time of tumor iodine concentration maximum with plateau after the end of administration", "setting": "[2]", "result": "about 1 minute"},
      {"measurement": "animals showing a significant therapy effect (survival time)", "setting": "[3]; 2 g of iodine/kg i.v. within 6 minutes before each of 6 sessions of 3 Gy within 90 seconds, 140 kV, total 18 Gy", "result": "2 of 6"},
      {"measurement": "therapeutic result relative to standard therapy on the linear accelerator", "setting": "[3]; same total dose 18 Gy, linear accelerator 2 MV, 3 fractions of 6 Gy", "result": "therapeutic advantage"}
    ]}
  ]
}
